Test [1] has as its system human naïve state stem cells. Briefly: stem cell drug screening assay on naïve state stem cells. It is filed as cell-based. To be noted: 6 uM, 3 days. As to the method:
The stem cell screening assay, was performed in both the presence and absence of the stem cell growth factors: NME7AB for growing naïve stem cells or FGF for growing primed stem cells. If the cognate growth factor was present, then the biological or small molecule would have to compete away the growth factor to get an effect. Therefore, we expected to see more of an effect when the growth factor, FGF for primed stem cells or NME7AB or NME1 dimers for naïve stem cells, was absent. The effect of the compounds on stem cells was visually determined and compounds were ranked 0-4, with 4 being the greatest effect and 0 being no observable effect. The major effect that was observed was a change from pluripotent stem cell morphology, which is a cobblestone pattern of small round cells with a large nucleus to cytoplasm ratio, to that of differentiating stem cells, which are elongated, large and flattened cells with a smaller nucleus to cytoplasm ratio. […] The compounds were added to a final concentration of 6 uM to either naïve state stem cells or primed state stem cells. In this particular case, the naïve state stem cells were maintained in a naïve state by culturing in a media containing NME7AB or NME1 dimers. However, other methods such as 2i and 5i (Silva et al., 2008, Nichols and Smith, 2009, Theunissen et al., 2014)] can be used to maintain stem cells in a more naïve state. In this case primed state stem cells were cultured in bFGF over a layer of MEFs, although it is known that any bFGF containing media will maintain stem cells in the primed state.
Stem cells whether embryonic or induced pluripotent stem (iPS) cells were cultured in a minimal, serum-free media that contained human recombinant NME7AB at a concentration of 2-32 nM wherein 4-8 nM is preferred and 4 nM is more preferred. To facilitate surface attachment, cell culture plates were coated with an anti-MUC1* monoclonal antibody called MN-C3 or C3 or MN-C8 at a concentration of 2-100 ug/mL coating solution, wherein 3-50 ug/mL is preferred and 6-12.5 ug/mL is more preferred. In these experiments, 12.5 ug/mL of MN-C3 was used. Antibody coated plates were incubated at 4 degrees C. overnight prior to plating stem cells. A Rho kinase I inhibitor was added to enhance surface attachment. In some cases, NME7AB was substituted with human recombinant NME1 dimers which also induce stem cells to revert to a naïve-like state.
Human naïve state and primed stem cells were cultured in parallel for at least 5 passages to guarantee normal differentiation-free growth. The stem cells were plated in 12-well cell culture plates with 50,000 cells per well. Cells were cultured in their respective media, either bFGF media or NME7AB media for 24 hours. Media was then removed and replaced with media devoid of bFGF or NME7AB, when indicated. Agents being tested for their ability to induce differentiation of naïve stem cells were added to the media at the concentrations indicated. After 72 hours, photographs were taken see FIGS. 1-10.
Human naïve state and primed stem cells were cultured in parallel for at least 5 passages to guarantee normal differentiation-free growth. The stem cells were plated in 12-well cell culture plates with 50,000 cells per well. Cells were cultured in their respective media, either bFGF media or NME7AB media for 24 hours. Media was then removed and replaced with media devoid of bFGF or NME7AB. […] Media was changed after 48 hours and replaced with fresh media containing the BRD4 inhibitors. After 4 days the experiment was stopped. Photographs were taken and cell pellets collected for further analysis, see FIGS. 11-16.

Test [2] relates to MUC1* positive cancer cells. Briefly: cancer cell growth in vitro (previously shown). It counts as cell-based.
In test [3] the test system is E-cadherin, fibronectin, vimentin and NF1 expression in naïve stem cells. In words: RT-PCR of differentiation markers in treated naïve stem cells. It is filed as cell-based, human. Here is the method:
FIG. 161 is a graph of RT-PCR measurement of naïve stem cells that have been treated with compounds of the invention. The genes whose expression is measured are E-cadherin, which goes […] as cells undergo epithelial to mesenchymal transition, fibronectin and vimentin, which both increase as stem cells initiate differentiation and NF1, which is one of the first genes to increase when stem cells begin to differentiate down the neural lineage. […] E-cadherin is the opposite; it […] as cells become cancerous. […] Expression of metastatic marker E-cadherin was reduced and expression of differentiation markers fibronectin, vimentin and NF1 were increased (FIG. 162-FIG. 163). Novel compounds of the invention are highly specific. […] Although we discovered that NME1 dimers, NME7AB and NME7-X1 are all activating ligands of the MUC1* growth factor receptor and they bind to its extracellular domain, we have developed ample evidence that both NME7AB and NME7-X1 have other binding partners and can exert oncogenic effects, independent of MUC1*.

The test system of the next test is T47D breast cancer cells. Briefly: cancer cell proliferation assay (Calcein live cell stain). It counts as cell-based, human. The following applies: live cell Calcein stain, 96 hours (FIG. 113). Here is the method:
These analogs of MN1194 and 1186 were also tested in a cell growth assay (FIGS. 107A1-107H6 and FIG. 108A1-108H6, respectively). In this experiment, both parent compound and analogs thereof were added to normal cell culture media to final concentrations of 40 uM, 20 uM, 10 uM, 5 uM or 2.5 uM. For comparison, previously known cancer cell migration inhibitors SU11274 and MN1204 were included in the same experiment. […] Relative cell proliferation is quantified on a standard plate reader that reads the fluorescence of the Calcein that is taken up by live cells.
Small molecule inhibition of cancer cell proliferation studies were also performed on several cancer sub-types. […] The small molecules of the invention had the most robust effect on T47D breast cancer cells, which are highly positive for MUC1* growth factor receptor, and its activating ligands NME7AB and NME7-X1.
For the cancer cell proliferation experiment cancer cells were plated at constant densities (6000 cells/well) into a 96-well White-walled/Clear-bottom Tissue Culture Treated plate (Corning Incorporated, Big Flats, N.Y.). Small molecule analogs are added at T=24 hours in media with 2% FBS. Following the addition of the small molecules, the cells remain untouched for 120 hours with visual confirmations/inspections at 24, 48, 72 and 96 hours post plating. At the 120 hour mark a calcein fluorescence assay (Thermo Fisher Scientific, Waltham, Mass.) is performed on the plate. Calcein fluorescence (final concentration 0.5 uM) is used to assess cell viability. Cancer cell fluorescence is measured in a TECAN SAFIRE^2 spectrophotometer plate reader. The plate is then imaged using an Olympus IX71 fluorescence imaging microscope and montage of the resulting images are assembled using ImageJ.

For test [4], the system named is SK-OV-3 MUC1* positive ovarian cancer cells. Briefly: cancer cell proliferation assay (Calcein). It is filed as cell-based. The following applies: 96 hours (FIG. 112). Here is the method: Small molecule inhibition of cancer cell proliferation studies were also performed on several cancer sub-types. […] The small molecules of the invention had the most robust effect on T47D breast cancer cells, which are highly positive for MUC1* growth factor receptor, and its activating ligands NME7AB and NME7-X1. […] For the cancer cell proliferation experiment cancer cells were plated at constant densities (6000 cells/well) into a 96-well White-walled/Clear-bottom Tissue Culture Treated plate (Corning Incorporated, Big Flats, N.Y.). Small molecule analogs are added at T=24 hours in media with 2% FBS. […] […] Calcein fluorescence (final concentration 0.5 uM) is used to assess cell viability. Cancer cell fluorescence is measured in a TECAN SAFIRE^2 spectrophotometer plate reader. The plate is then imaged using an Olympus IX71 fluorescence imaging microscope and montage of the resulting images are assembled using ImageJ.

Test [5] concerns OV-90 MUC1* negative ovarian cancer cells. Briefly: cancer cell proliferation assay (Calcein). The following applies: 96 hours (FIG. 114). It is filed as cell-based. Here is the method: Small molecule inhibition of cancer cell proliferation studies were also performed on several cancer sub-types. […] The small molecules of the invention had the most robust effect on T47D breast cancer cells, which are highly positive for MUC1* growth factor receptor, and its activating ligands NME7AB and NME7-X1. […] For the cancer cell proliferation experiment cancer cells were plated at constant densities (6000 cells/well) into a 96-well White-walled/Clear-bottom Tissue Culture Treated plate (Corning Incorporated, Big Flats, N.Y.). Small molecule analogs are added at T=24 hours in media with 2% FBS. Following the addition of the small molecules, the cells remain untouched for 120 hours with visual confirmations/inspections at 24, 48, 72 and 96 hours post plating. At the 120 hour mark a calcein fluorescence assay (Thermo Fisher Scientific, Waltham, Mass.) is performed on the plate. Calcein fluorescence (final concentration 0.5 uM) is used to assess cell viability. Cancer cell fluorescence is measured in a TECAN SAFIRE^2 spectrophotometer plate reader. The plate is then imaged using an Olympus IX71 fluorescence imaging microscope and montage of the resulting images are assembled using ImageJ.

The test system of test [6] is NME7AB-induced transition of regular cancer cells to metastatic cancer cells. Briefly: transition of regular cancer cells to metastatic cancer cells (previously shown). It counts as cell-based.

With `COC(=O)c1ccc(C2c3[nH]c4ccccc4c3CCN2C(=O)c2cccc(Cl)c2)cc1` (stereo not drawn) [MN0642], in test [1], the “effect on naïve stem cell pluripotency, growth or differentiation (visually determined)” value was “induced differentiation”. For the same molecule, the “inhibition of cancer cell growth in vitro” value in test [2] is recorded as “inhibit the growth of cancer cells in vitro”.
On to `CC(C)C1c2[nH]c3ccccc3c2CCN1C(=O)CCCCNC(=O)OC(C)(C)C` (stereo not drawn) [MN1235], for which, in test [3], the “up-regulation of markers of differentiation in naïve stem cells (RT-PCR)” value is recorded as “failed to induce differentiation”.
Consider `Cc1[nH]c(/C=C2\C(=O)Nc3ccc(S(=O)(=O)N(C)c4cccc(Cl)c4)cc32)c(C)c1C(=O)N1CCN(C)CC1` [SU11274], for which the “inhibition of growth of T47D cells” value in the test on T47D breast cancer cells is recorded as “inhibited growth”. In addition, the “effect on growth of SK-OV-3 cells” value in test [4] was “no effect”. Moreover, in test [5], the “effect on growth of OV-90 cells” value is reported as “neither the compounds of the invention nor JQ1 or SU11274 had any apparent effect”. Further, the “up-regulation of markers of differentiation in naïve stem cells (RT-PCR)” value in test [3] is “did not cause up-regulation of markers of differentiation”.
For “FLR peptide: synthetic peptide corresponding to the extracellular domain of MUC1*, PSMGFR, SEQ ID NO:3 (GTINVHDVETQFNQYKTEAASRYNLTISDVSVSDVPFPFSAQSGA; the extracellular domain of Native Primary Sequence of the MUC1 Growth Factor Receptor (nat-PSMGFR - an example of “PSMGFR”))”, the “effect on naïve stem cell pluripotency, growth or differentiation (visually determined)” value in test [1] is recorded as “induced differentiation”. Besides, the “inhibition of transition of regular cancer cells to metastatic cancer cells” value in test [6] is “inhibit the transition of regular cancer cells to metastatic cancer cells”.

Values taken from patent US11931347B2, “Method of screening for agents for differentiating stem cells” (MINERVA BIOTECHNOLOGIES CORPORATION, priority 2015, dated 2024).
